Assay results taken from ChEMBL document CHEMBL1201862, “PubChem BioAssay data set” (2004).
The source made the active and inactive calls.

Legend:
[1] = cells; type: functional
[2] = NIH-3T3 fibroblast cytotoxicity, dose response, cytotoxicity control, cell-based, fluorescence, Alamar Blue, secondary assay (AID 2327); type: functional;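 also: NIH-3T3 mouse fibroblasts cultured with fluconazole at 8 µg/mL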
[3] = fluconazole-exposed Candida albicans growth modulators – fluorescence, retest, confirmation (AID 2467); type: functional, cell-based
[4] = molecular target: T1, Calpain-2 catalytic subunit (Sus scrofa, UniProt P43367); test: m-calpain protease blockers, concentration series – biochemical, fluorogenic peptide substrate, dose response (AID 1420); type: functional
T1 sequence (P43367 whole entry): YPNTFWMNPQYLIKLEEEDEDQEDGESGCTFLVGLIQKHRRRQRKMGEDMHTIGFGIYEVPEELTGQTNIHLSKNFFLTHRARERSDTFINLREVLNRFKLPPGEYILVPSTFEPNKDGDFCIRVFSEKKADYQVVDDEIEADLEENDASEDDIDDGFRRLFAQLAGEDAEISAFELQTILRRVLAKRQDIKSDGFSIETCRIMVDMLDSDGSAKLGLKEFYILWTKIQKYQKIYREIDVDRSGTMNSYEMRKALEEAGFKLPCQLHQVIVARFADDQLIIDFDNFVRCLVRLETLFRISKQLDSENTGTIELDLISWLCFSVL

[5] = viability of uninfected HEp-2 cells – cell-based, HTS, cytotoxicity control for RSV inhibitor project, dose response (AID 2410); type: functional; conditions: human respiratory syncytial virus
[6] = luciferase reporter signal suppression in cells – H4 neuroglioma cells, luminescence, dose response (AID 1990); type: functional, cell-based
[7] = Luminescence Cell-Based Dose Response HTS to Identify Inhibitors of 5'UTR Stem-Loop Driven Prion Protein mRNA Translation in H4 Neuroglioblastoma Cells. [Related pubchem assays: 1827 (Project Summary), 1813 (Primary HTS)]; type: functional
[8] = alpha-synuclein stem-loop luciferase translation blockers – H4 neuroglioma cells, luminescence, confirmation (AID 1988); type: functional, cell-based
[9] = molecular target: T2, Heat shock factor protein 1 (Mus musculus, UniProt P38532); test: decrease of HSF1-responsive luciferase luminescence – cell-based, NIH3T3, dose retest, confirmation (AID 2382); type: functional;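 also: NIH3T3 fibroblasts with HSF1-driven luciferase reporter stressed by proteasome inhibitor MG132; luminescence from HSF1-driven luciferase expression after 8 hours of MG132 stress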
T2 sequence (P38532 whole entry): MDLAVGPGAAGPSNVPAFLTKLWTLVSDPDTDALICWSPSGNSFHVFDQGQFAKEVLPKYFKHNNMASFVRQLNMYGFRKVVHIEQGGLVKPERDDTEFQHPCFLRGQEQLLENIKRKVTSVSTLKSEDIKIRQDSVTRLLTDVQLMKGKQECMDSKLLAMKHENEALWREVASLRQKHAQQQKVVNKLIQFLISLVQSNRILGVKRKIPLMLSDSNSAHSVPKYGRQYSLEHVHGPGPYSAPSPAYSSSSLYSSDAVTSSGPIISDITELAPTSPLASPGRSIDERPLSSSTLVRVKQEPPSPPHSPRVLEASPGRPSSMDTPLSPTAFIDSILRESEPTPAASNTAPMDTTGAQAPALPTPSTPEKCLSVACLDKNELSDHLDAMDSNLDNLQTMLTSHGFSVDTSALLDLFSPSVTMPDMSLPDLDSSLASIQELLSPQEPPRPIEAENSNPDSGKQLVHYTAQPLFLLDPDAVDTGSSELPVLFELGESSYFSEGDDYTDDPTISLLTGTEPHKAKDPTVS

[10] = system: HEK293; test: EBV LMP1 TES2 canonical NF-kB signalling blockers – cell-based, HEK293, luciferase, cherry-pick, dose response (AID 588343); type: functional; conditions: Homo sapiens
[11] = reduction of Shn3 3'UTR-driven luciferase in osteoblasts – cell-based, Clone20 osteoblasts, firefly luciferase, cherry-picked, dose response (AID 624132); type: functional;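 also: firefly luciferase luminescence from reporter carrying the Shn3 3'UTR in osteoblasts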
[12] = molecular target: T3, Rac GTPase-activating protein 1 (Homo sapiens, UniProt Q9H0H5); test: blockers of MgcRacGAP-driven Rac1 GTP hydrolysis – biochemical, ADP Hunter fluorescence, primary and confirmatory, confirmation (AID 624330); type: functional
T3 sequence (Q9H0H5 whole entry): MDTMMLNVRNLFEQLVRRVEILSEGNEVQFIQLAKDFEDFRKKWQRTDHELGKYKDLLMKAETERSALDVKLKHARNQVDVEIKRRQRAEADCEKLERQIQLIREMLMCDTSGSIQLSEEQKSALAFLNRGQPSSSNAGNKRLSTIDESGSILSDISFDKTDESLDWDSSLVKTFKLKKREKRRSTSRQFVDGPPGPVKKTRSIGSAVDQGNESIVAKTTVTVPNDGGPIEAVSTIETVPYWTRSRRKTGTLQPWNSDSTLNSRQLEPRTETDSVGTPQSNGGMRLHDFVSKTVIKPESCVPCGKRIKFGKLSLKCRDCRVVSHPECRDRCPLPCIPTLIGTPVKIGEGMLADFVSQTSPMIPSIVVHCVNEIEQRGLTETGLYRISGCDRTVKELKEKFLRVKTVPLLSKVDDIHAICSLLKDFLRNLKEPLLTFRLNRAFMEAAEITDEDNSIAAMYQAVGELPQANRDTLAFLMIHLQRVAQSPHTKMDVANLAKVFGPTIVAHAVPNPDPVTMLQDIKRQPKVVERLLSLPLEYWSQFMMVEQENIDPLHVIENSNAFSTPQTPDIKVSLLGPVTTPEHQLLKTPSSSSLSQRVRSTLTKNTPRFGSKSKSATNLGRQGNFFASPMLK

[13] = loss of viability in HepG2 cells – cell-based, CellTiter-Glo, cherry-picked, cytotoxicity control for Shn3 inhibitor project, dose response (AID 624134); type: functional
[14] = non-specific 3'UTR reporter inhibition in Clone20-Shn3RL – cell-based, Renilla luciferase, cherry-picked, counter-screen for Shn3 inhibitor project, dose response (AID 624133); type: functional
[15] = molecular target: Luciferin 4-monooxygenase (Photinus pyralis, UniProt P08659); test: inhibition of purified Photinus pyralis luciferase – biochemical, luminescence, dose response (AID 1891)
Chain of Luciferin 4-monooxygenase (P08659 whole entry): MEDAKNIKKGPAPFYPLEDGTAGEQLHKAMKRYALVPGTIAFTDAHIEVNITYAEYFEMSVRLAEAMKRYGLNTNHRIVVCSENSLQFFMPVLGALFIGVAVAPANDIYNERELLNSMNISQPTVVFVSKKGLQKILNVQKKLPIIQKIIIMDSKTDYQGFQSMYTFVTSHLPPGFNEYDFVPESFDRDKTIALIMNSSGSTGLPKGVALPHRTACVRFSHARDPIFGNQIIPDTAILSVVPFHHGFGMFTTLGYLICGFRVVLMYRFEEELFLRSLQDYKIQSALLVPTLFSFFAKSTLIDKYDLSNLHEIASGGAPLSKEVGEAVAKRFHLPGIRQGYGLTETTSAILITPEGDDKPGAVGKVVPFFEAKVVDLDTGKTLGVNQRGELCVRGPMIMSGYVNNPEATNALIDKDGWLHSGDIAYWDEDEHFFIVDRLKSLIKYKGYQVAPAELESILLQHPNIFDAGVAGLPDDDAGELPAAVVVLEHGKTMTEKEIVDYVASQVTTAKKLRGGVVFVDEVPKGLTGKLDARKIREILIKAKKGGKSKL

[16] = Luminescence Cell-Based Dose Confirmation HTS to Identify Inhibitors of Platelet Dense Granule Release. [Related pubchem assays: 1663 (Primary HTS), 1678 (Summary of Project)]; type: functional
[17] = molecular target: T4, Protein skinhead-1 (Caenorhabditis elegans, UniProt P34707); type: functional
T4 sequence (P34707 whole entry): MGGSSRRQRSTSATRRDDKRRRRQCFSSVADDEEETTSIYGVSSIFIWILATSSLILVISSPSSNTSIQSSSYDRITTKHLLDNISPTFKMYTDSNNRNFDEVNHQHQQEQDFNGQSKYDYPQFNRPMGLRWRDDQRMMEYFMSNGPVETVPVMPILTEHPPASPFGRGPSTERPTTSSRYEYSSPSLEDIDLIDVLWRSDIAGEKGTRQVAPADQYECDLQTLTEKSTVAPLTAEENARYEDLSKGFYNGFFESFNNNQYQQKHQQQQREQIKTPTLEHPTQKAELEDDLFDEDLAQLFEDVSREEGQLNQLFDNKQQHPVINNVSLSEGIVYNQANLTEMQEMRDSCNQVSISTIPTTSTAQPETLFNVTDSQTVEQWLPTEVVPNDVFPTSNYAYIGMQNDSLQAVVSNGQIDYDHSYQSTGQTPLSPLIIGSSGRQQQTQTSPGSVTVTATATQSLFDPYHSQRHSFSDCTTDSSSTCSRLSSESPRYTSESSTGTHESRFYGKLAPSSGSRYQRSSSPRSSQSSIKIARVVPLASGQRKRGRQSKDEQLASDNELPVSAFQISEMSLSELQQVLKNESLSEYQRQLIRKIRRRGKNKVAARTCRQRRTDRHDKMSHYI

[18] = molecular target: T5, Ubiquitin-conjugating enzyme E2 N (Homo sapiens, UniProt P61088); type: functional;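 also: Dose-response confirmation in a TR-FRET assay detecting UBC13-driven polyubiquitin chain formation, inhibition measured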
T5 sequence (P61088 whole entry): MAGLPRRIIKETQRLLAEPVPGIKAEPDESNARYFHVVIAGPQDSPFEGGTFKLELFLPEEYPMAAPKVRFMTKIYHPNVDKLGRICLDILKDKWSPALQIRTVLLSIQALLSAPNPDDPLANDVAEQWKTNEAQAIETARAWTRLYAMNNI

[19] = molecular target: Paired box protein Pax-8 (Homo sapiens, UniProt Q06710); test: PAX8 transcriptional activity inhibition in RMG-I – RMG-I cells, luciferase, cherry-pick, dose response (AID 687027); type: functional, cell-based;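 also: luciferase reporter driven by Pax8 target thyroperoxidase promoter measured by SteadyGlo luminescence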
Chain of Paired box protein Pax-8 (Q06710 whole entry): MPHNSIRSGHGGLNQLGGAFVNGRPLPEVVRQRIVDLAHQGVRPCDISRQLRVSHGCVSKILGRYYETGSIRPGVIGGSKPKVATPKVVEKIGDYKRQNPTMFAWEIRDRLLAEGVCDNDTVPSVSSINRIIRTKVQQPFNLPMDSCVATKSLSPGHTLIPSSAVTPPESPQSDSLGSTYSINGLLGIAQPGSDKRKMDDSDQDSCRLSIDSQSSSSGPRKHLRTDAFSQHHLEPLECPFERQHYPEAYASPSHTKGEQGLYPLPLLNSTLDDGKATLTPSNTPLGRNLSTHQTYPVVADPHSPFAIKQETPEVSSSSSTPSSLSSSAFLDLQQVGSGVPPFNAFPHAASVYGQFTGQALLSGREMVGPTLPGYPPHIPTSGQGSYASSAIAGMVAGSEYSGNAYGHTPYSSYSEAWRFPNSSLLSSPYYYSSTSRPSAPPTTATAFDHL

[20] = Trypanosoma cruzi growth suppression in host cells – NIH3T3 host cells, beta-gal luminescence, confirmation (AID 2044); type: functional, cell-based;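 also: intracellular parasites grown in NIH/3T3 mouse fibroblasts as host cells; luminescent beta-galactosidase reporter signal from transgenic T. cruzi replicating inside host cells; inhibitors lower the luminescence signal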
[21] = NIH3T3 cell viability loss – ATP luminescence, mouse fibroblasts, counter-screen, dose response (AID 2010); type: functional, cell-based;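 also: cells exposed to compound for about 90 hours before reading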
[22] = system: Streptococcus sp. 'group A'; test: Streptococcus pyogenes SK(-)GAS viability under kanamycin – luminescence, BacTiterGlo, confirmation, counter-screen for streptokinase expression inhibitor project, dose response (AID 1900); type: functional, organism-based
[23] = molecular target: T6, Streptokinase A (Streptococcus pyogenes serotype M1, UniProt P10520); test: viability-normalized secreted streptokinase activity reduction – plasminogen activation absorbance, OD405, dose response (AID 1914); type: functional, Streptococcus pyogenes M1 GAS;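 also: secreted streptokinase activity via plasminogen activation per viability signal from cell pellet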
T6 sequence (P10520 whole entry): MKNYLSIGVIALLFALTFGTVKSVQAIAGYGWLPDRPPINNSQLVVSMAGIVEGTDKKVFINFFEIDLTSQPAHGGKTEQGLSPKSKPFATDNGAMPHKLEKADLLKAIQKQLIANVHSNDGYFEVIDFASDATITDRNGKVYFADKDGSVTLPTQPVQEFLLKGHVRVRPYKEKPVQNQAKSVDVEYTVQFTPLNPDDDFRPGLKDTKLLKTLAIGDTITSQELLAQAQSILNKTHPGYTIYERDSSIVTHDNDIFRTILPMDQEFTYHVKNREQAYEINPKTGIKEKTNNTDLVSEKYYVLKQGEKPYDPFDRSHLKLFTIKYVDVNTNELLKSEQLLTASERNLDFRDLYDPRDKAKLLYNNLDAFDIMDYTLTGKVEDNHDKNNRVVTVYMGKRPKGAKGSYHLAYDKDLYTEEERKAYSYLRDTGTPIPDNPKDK

[24] = system: Streptococcus; test: GAS UMAA2166 growth inhibition – luminescence, BacTiterGlo, counter-screen for streptokinase expression inhibitor project, dose response (AID 1915); type: functional, organism-based;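 also: potency for reduction of bacterial viability or growth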

COc1ccccc1C1=Nn2c(nnc2C2CCCCC2)SC1
IC50 [1]: 12.1 µM (active)

CCCCC(=O)Nc1ncc([N+](=O)[O-])s1
EC50 [2]: > 160 µM (inactive)
EC50 [3]: 0.141 µM (active)

CCOC(=O)c1cnc2c(Cl)ccc(Cl)c2c1O
IC50 [4]: 17.3 µM (not active)

CN(C1=NC(=O)C(CC(=O)Nc2ccc(Br)cc2)S1)c1ccc(O)cc1 (configuration not stated)
CC50 [5]: 36 µM (active)
EC50 [6]: 66.4 µM (active)
EC50 [7]: > 120 µM (not active)
EC50 [8]: 23.8 µM (active)

Cc1cccc(NC(=O)NC2CCCCCCC2)c1
EC50 [2]: 24.8 µM (active)
EC50 [3]: > 38 µM (not active)

Cc1ccc(NC(=S)NC(=O)C2CC2)cc1Cl
EC50 [2]: > 160 µM (inactive)
EC50 [3]: 3.32 µM (active)

COc1cc2cc(C(=O)Nc3ccc4c(c3)OCCO4)[nH]c2cc1OC
EC50 [9]: 0.907 µM (active)
AC50 [10]: 0.595 µM (active)

COCCSc1nnc(NC(=O)CCS(=O)(=O)Cc2ccccc2)s1
IC50 [1]: 45.5 µM (active)

O=C(c1ccc(F)cc1)N1CCN2C(=O)c3ccccc3C12c1ccc(Cl)cc1 (configuration not stated)
CC50 [5]: 29 µM (active)

O=C(OCC#CCSc1nnc(-c2ccccc2)o1)c1ccco1
IC50 [1]: 21.1 µM (active)

Cc1cc(C)c(S(=O)(=O)Nc2cccc(-n3cnnn3)c2)c(C)c1
EC50 [2]: 29.6 µM (active)
EC50 [3]: 10.9 µM (active)

CC(=O)N1CCOc2cc(S(=O)(=O)NCc3ccc(F)cc3)c(C)cc21
AC50 [11]: > 70 µM (inactive)

CN(C)c1ccc(NC(=O)CCN2C(=O)c3cccc([N+](=O)[O-])c3C2=O)cc1
IC50 [12]: 86.5 µM (active)

O=C(Oc1ccc(Cl)c2cccnc12)c1cccc([N+](=O)[O-])c1
EC50 [2]: 19.9 µM (inconclusive)
EC50 [3]: > 38 µM (not active)

O=C(Nc1ccc(Cl)cc1)c1ccc(-n2cncn2)c([N+](=O)[O-])c1
CC50 [5]: 20.6 µM (active)

COc1ccc(-n2nc3c(N4CCC(C(=O)NCC(C)c5ccccc5)CC4)nnc(C)c3c2C)cc1 (configuration not stated)
AC50 [11]: 3.25 µM (active)
AC50 [13]: 30.2 µM (active)
AC50 [14]: 36.7 µM (active)

CCCOC(=O)c1cc(NC(=O)/C=C/c2ccccc2)ccc1O
CC50 [5]: 20.4 µM (active)

CN(C)c1ccc(/C=C2/NC(=O)NC2=O)cc1
IC50 [12]: 51.2 µM (active)

COc1cc(N(C)C)c([N+](=O)[O-])cc1C(=O)N1CCN(Cc2ccccc2)CC1
AC50 [10]: 12.8 µM (active)

COc1ccc(Cl)cc1C(=O)NCc1ccc2c(c1)OCO2
CC50 [5]: 34.4 µM (active)

O=C(/C=C/Nc1ccc(Br)cc1F)c1ccccc1
EC50 [7]: 9.38 µM (active)
EC50 [8]: 4.27 µM (active)
EC50 [15]: 0.542 µM (active)
EC50 [16]: 4.16 µM (active)
AC50 [10]: 1.65 µM (active)
IC50 [17]: > 100 µM (inactive)

COc1cc2c(cc1OC)CN(C(=O)c1ccc3[nH]c(C)c(C)c3c1)CC2
CC50 [5]: > 50 µM (active)

O=C(C(=O)N1CCOCC1)c1cn(Cc2ccc(F)cc2)c2ccccc12
IC50 [18]: > 20 µM (inactive)

COC(=O)c1ccc(NCc2c(O)ccc(O)c2Br)cc1Cl
IC50 [12]: 57.6 µM (active)

Cc1cccc(/N=C2/Sc3nc4c(C)c(C)ccc4cc3CN2CCN2CCOCC2)c1
CC50 [5]: 16.1 µM (active)

CN(/N=C/c1ccc(O)cc1O)c1nc(-c2ccccc2)cc(-c2ccccc2)n1
AC50 [19]: 26.9 µM (active)

Cc1ccc(-c2cc(C(=O)N/N=C/C=C/c3ccco3)c3ccccc3n2)cc1C
AC50 [10]: 1.63 µM (active)

CC1=Nc2ncnn2C(c2cccnc2)/C1=C(\O)OC1CCCCC1 (configuration not stated)
EC50 [20]: 2.35 µM (active)
EC50 [21]: > 60 µM (not active)
AC50 [19]: 36.1 µM (active)

O=C(CCN1CCN(C/C=C/c2ccccc2)CC1)Nc1ccc(Cl)cc1
IC50 [1]: 34.6 µM (active)

O=C(Nc1ccccc1)N1CCN(c2nc(-c3ccccc3)ns2)CC1
IC50 [18]: > 20 µM (inactive)

O=c1c2sccc2[nH]c(=S)n1-c1ccccc1
IC50 [18]: > 20 µM (inactive)

COC(=O)N/N=C/c1c[n+]([O-])c2ccccc2[n+]1[O-] [CARBADOX]
EC50 [22]: 9.12 µM (active)
EC50 [23]: > 150 µM (not active)
EC50 [24]: 11.5 µM (active)
